Patent publication US5041567A, “Antibacterial monic acid derivatives” (Beecham Group plc, priority 1982, dated 1991)
≈ marks a conversion by molar mass, not a printed value. Where two headings read alike, the source gives them in different places.

Assays:
[1] = test system: M. suipneumoniae NB12; assay: MIC against mycoplasma in vitro; type: cell-based; conditions: Mesomycoplasma hyopneumoniae
[2] = test system: M. suipneumoniae Str. 11; assay: MIC against mycoplasma in vitro; type: cell-based; conditions: Mesomycoplasma hyopneumoniae
[3] = test system: Sarcina lutea 8340; assay: MIC against human bacteria in vitro; type: cell-based; conditions: Micrococcus luteus; Sarcina lutea 8340; 5% chocolated horse blood agar, 18 hours; read-out: MIC
[4] = test system: Strep. suis (group D) SPS11; assay: MIC against veterinary bacteria in vitro; conditions: Streptococcus suis, 18 h
Experimental: (§1) The activity of the compounds of the Examples against various veterinarily important bacteria, was assayed in vitro using two-fold serial dilutions in Diagnostic Sensitivity Test Agar inoculated with 10^4 organisms.

[5] = test system: K. aerogenes A; assay: MIC against human bacteria in vitro; type: cell-based; conditions: Klebsiella aerogenes; K. aerogenes A; 5% chocolated horse blood agar, 18 hours; read-out: MIC
[6] = test system: Strep. agalactiae 2788-B; assay: MIC against human bacteria in vitro; type: cell-based; conditions: Streptococcus agalactiae; Strep. agalactiae 2788-B; 5% chocolated horse blood agar, 18 hours; read-out: MIC
[7] = test system: Corynebacterium pyogenes CY1; assay: MIC against veterinary bacteria in vitro; conditions: CY1, 18 h
Experimental: as §1

[8] = test system: Staph. aureus Oxford; assay: MIC against human bacteria in vitro; type: cell-based; conditions: Staphylococcus aureus; Staph. aureus Oxford; 5% chocolated horse blood agar, 18 hours; read-out: MIC
[9] = test system: M. dispar NCTC 10125; assay: MIC against mycoplasma in vitro; type: cell-based; conditions: 144 h
[10] = test system: Staph. aureus W2827; assay: MIC against human bacteria in vitro; type: cell-based; conditions: Staphylococcus aureus
[11] = test system: Staph. aureus 152 (pen. sens); assay: MIC against veterinary bacteria in vitro; conditions: Staphylococcus aureus, 18 h
Experimental: as §1

[12] = test system: M. hyorhinis ATCC 25021; assay: MIC against mycoplasma in vitro; type: cell-based; conditions: Mesomycoplasma hyorhinis, ATCC25021, 144 h
[13] = test system: Staph. aureus Oxford; assay: MIC against veterinary bacteria in vitro; conditions: Staphylococcus aureus, 18 h
Experimental: as §1

[14] = test system: M. suipneumoniae NCTC 10110; assay: MIC against mycoplasma in vitro; type: cell-based; conditions: Mesomycoplasma hyopneumoniae, NCTC10110, 144 h
[15] = test system: M. suipneumoniae HK(2); assay: MIC against mycoplasma in vitro; type: cell-based; conditions: Mesomycoplasma hyopneumoniae, 144 h
[16] = test system: Pasteurella multocida 1633; assay: MIC against human bacteria in vitro; type: cell-based
[17] = test system: M. suipneumoniae MS 16; assay: MIC against mycoplasma in vitro; type: cell-based; conditions: Mesomycoplasma hyopneumoniae, MS16, 144 h
[18] = test system: Erysipelothrix rhusiopathiae NCTC 8163; assay: MIC against veterinary bacteria in vitro; conditions: Erysipelothrix rhusiopathiae, NCTC8163, 18 h
Experimental: as §1

[19] = test system: M. suipneumoniae J2206/183^b; assay: MIC against mycoplasma in vitro; type: cell-based; conditions: Mesomycoplasma hyopneumoniae, 144 h
[20] = test system: M. suipneumoniae UCD 1; assay: MIC against mycoplasma in vitro; type: cell-based; conditions: Mesomycoplasma hyopneumoniae, UCD1, 144 h
[21] = test system: P. mirabilis 889; assay: MIC against human bacteria in vitro; type: cell-based; conditions: Proteus mirabilis; P. mirabilis 889; 5% chocolated horse blood agar, 18 hours; read-out: MIC
[22] = test system: Past. multocida PA2; assay: MIC against veterinary bacteria in vitro; conditions: Pasteurella multocida, PA2, 18 h
Experimental: as §1

[23] = test system: M. suipneumoniae PW/C/210; assay: MIC against mycoplasma in vitro; type: cell-based; conditions: Mesomycoplasma hyopneumoniae, 144 h
[24] = test system: Strep. dysgalactiae SPD1; assay: MIC against veterinary bacteria in vitro; conditions: Streptococcus dysgalactiae, SPD1, 18 h
Experimental: as §1

[25] = test system: Strep. pneumoniae CN33; assay: MIC against human bacteria in vitro; type: cell-based; conditions: Streptococcus pneumoniae; Strep. pneumoniae CN33; 5% chocolated horse blood agar, 18 hours; read-out: MIC
[26] = test system: S. typhimurium S18; assay: MIC against veterinary bacteria in vitro; conditions: Salmonella enterica, TYPHIMURIUM, 18 h
Experimental: as §1

[27] = test system: Staph. aureus B4 (pen. resistant); assay: MIC against veterinary bacteria in vitro; conditions: Staphylococcus aureus, 18 h
Experimental: as §1

[28] = test system: M. gallisepticum S6; assay: MIC against mycoplasma in vitro; type: cell-based; conditions: Mycoplasmoides gallisepticum, 144 h; M. gallisepticum S6; 6 days, 37° C.; read-out: MIC
[29] = test system: Bord. bronchiseptica B08; assay: MIC against veterinary bacteria in vitro; conditions: Bordetella bronchiseptica, B08, 18 h
Experimental: as §1

[30] = test system: M. bovis NCTC 10131; assay: microbe, parasite or virus in culture; type: cell-based; conditions: NCTC10131, 144 h
[31] = test system: M. suipneumoniae JF 435; assay: MIC against mycoplasma in vitro; type: cell-based; conditions: Mesomycoplasma hyopneumoniae, JF435, 144 h
[32] = test system: M. hyorhinis ATCC 23234; assay: MIC against mycoplasma in vitro; type: cell-based; conditions: Mesomycoplasma hyorhinis, ATCC23234, 144 h
[33] = test system: M. suipneumoniae TAM 6N; assay: MIC against mycoplasma in vitro; type: cell-based; conditions: Mesomycoplasma hyopneumoniae, TAM6N, 144 h; M. suipneumoniae TAM 6N; 6 days, 37° C.; read-out: MIC
[34] = test system: Strep. faecalis I; assay: MIC against human bacteria in vitro; type: cell-based; conditions: Enterococcus faecalis; Strep. faecalis I; 5% chocolated horse blood agar, 18 hours; read-out: MIC
[35] = test system: M. bovigenitalium ATCC 14173; assay: MIC against mycoplasma in vitro; type: cell-based; conditions: 144 h
[36] = 144 h, M. suipneumoniae NB12, Friis broth, 0.9% agarose, 6 days, 37° C., read-out: MIC
[37] = Staph. aureus W2827, 5% chocolated horse blood agar, 18 hours, read-out: MIC
[38] = Pasteurella multocida 1633, 5% chocolated horse blood agar, 18 hours, read-out: MIC
[39] = M. suipneumoniae J2206/183^b, 6 days, 37° C., read-out: MIC
[40] = M. suipneumoniae JF 435, 6 days, 37° C., read-out: MIC

Row | SMILES | MIC [1, 36] | MIC ([2]; STR.11, 144 h) | MIC [3] | MIC [4] | MIC [5] | MIC [6] | MIC [7] | MIC [8] | MIC [13] | MIC [18] | MIC [21] | MIC [22] | MIC [24] | MIC [25] | MIC [26] | MIC [28] | MIC [29] | MIC [30] | MIC [33] | MIC [34] | also measured
1 | C/C(=C\c1ncc(-c2ccccc2)o1)C[C@@H]1OC[C@H](C[C@@H]2O[C@H]2[C@@H](C)[C@H](C)O)[C@@H](O)[C@H]1O [Example 1, 2-(1-normon-2-yl)-5-phenyloxazole A] | 1 µg/mL (≈ 2.25 µM) | 0.5 µg/mL (≈ 1.13 µM) | ≥ 100 µg/mL | 20 µg/mL (≈ 45.1 µM) | > 100 µg/mL | 5 µg/mL (≈ 11.3 µM) | 80 µg/mL (≈ 180 µM) | 5 µg/mL (≈ 11.3 µM) | 1.25 µg/mL (≈ 2.82 µM) | 80 µg/mL (≈ 180 µM) | > 100 µg/mL | 1.25 µg/mL (≈ 2.82 µM) | 0.625 µg/mL (≈ 1.41 µM) | 2.5 µg/mL (≈ 5.64 µM) | > 80 µg/mL | 2.5 µg/mL (≈ 5.64 µM) | 80 µg/mL (≈ 180 µM) | ≤ 0.01 µg/mL | 1 µg/mL (≈ 2.25 µM) | ≥ 100 µg/mL | MIC ([9]; M. dispar NCTC 10125, 6 days, 37° C., read-out: MIC): 0.1 µg/mL (≈ 0.225 µM); MIC [10, 37]: 5 µg/mL (≈ 11.3 µM); MIC [11]: 1.25 µg/mL (≈ 2.82 µM); MIC [12]: 0.5 µg/mL (≈ 1.13 µM); MIC ([14]; M. suipneumoniae NCTC 10110, 6 days, 37° C., read-out: MIC): 1 µg/mL (≈ 2.25 µM); MIC ([15]; M. suipneumoniae HK(2), 6 days, 37° C., read-out: MIC): 1 µg/mL (≈ 2.25 µM); MIC [16, 38]: 10 µg/mL (≈ 22.5 µM); MIC [17]: 0.5 µg/mL (≈ 1.13 µM); MIC [19, 39]: 1 µg/mL (≈ 2.25 µM); MIC ([20]; M. suipneumoniae UCD 1, 6 days, 37° C., read-out: MIC): 1 µg/mL (≈ 2.25 µM); MIC [23]: 0.5 µg/mL (≈ 1.13 µM); MIC [27]: 1.25 µg/mL (≈ 2.82 µM); MIC [31, 40]: 1 µg/mL (≈ 2.25 µM); MIC [32]: 0.5 µg/mL (≈ 1.13 µM)
2 | C/C(=C\c1ncc(-c2cccc(C#N)c2)o1)C[C@@H]1OC[C@H](C[C@@H]2O[C@H]2[C@@H](C)[C@H](C)O)[C@@H](O)[C@H]1O [Example 5, 5-m-cyanophenyl-2-(1-normon-2-yl)oxazole A] | 0.05 µg/mL (≈ 0.107 µM) | – | > 50 µg/mL | 10 µg/mL (≈ 21.3 µM) | > 50 µg/mL | 2.5 µg/mL (≈ 5.34 µM) | 80 µg/mL (≈ 171 µM) | 1.2 µg/mL (≈ 2.56 µM) | 0.625 µg/mL (≈ 1.33 µM) | 80 µg/mL (≈ 171 µM) | > 50 µg/mL | 2.5 µg/mL (≈ 5.34 µM) | 0.312 µg/mL (≈ 0.666 µM) | 2.5 µg/mL (≈ 5.34 µM) | > 80 µg/mL | 0.5 µg/mL (≈ 1.07 µM) | 80 µg/mL (≈ 171 µM) | ≤ 0.01 µg/mL | 0.1 µg/mL (≈ 0.213 µM) | 50 µg/mL (≈ 107 µM) | MIC ([2]; 144 h, M. suipneumoniae Str. 11, 6 days, 37° C., read-out: MIC): 0.05 µg/mL (≈ 0.107 µM); MIC [9]: 0.025 µg/mL (≈ 0.0534 µM); MIC ([10]; W2827, 18 h): 5 µg/mL (≈ 10.7 µM); MIC [11]: 0.625 µg/mL (≈ 1.33 µM); MIC ([12]; M. hyorhinis ATCC 25021, 6 days, 37° C., read-out: MIC): 0.05 µg/mL (≈ 0.107 µM); MIC [14]: 0.1 µg/mL (≈ 0.213 µM); MIC ([16]; Pasteurella multocida, 1633, 18 h): 5 µg/mL (≈ 10.7 µM); MIC ([17]; M. suipneumoniae MS 16, 6 days, 37° C., read-out: MIC): 0.05 µg/mL (≈ 0.107 µM); MIC [19, 39]: 0.1 µg/mL (≈ 0.213 µM); MIC [20]: 0.1 µg/mL (≈ 0.213 µM); MIC ([23]; M. suipneumoniae PW/C/210, 6 days, 37° C., read-out: MIC): 0.05 µg/mL (≈ 0.107 µM); MIC [35]: 0.025 µg/mL (≈ 0.0534 µM); MIC [27]: 1.25 µg/mL (≈ 2.67 µM); MIC [31, 40]: 0.1 µg/mL (≈ 0.213 µM); MIC ([32]; M. hyorhinis ATCC 23234, 6 days, 37° C., read-out: MIC): 0.05 µg/mL (≈ 0.107 µM)
3 | C/C(=C\c1ncc(-c2cccc([N+](=O)[O-])c2)o1)C[C@@H]1OC[C@H](C[C@@H]2O[C@H]2[C@@H](C)[C@H](C)O)[C@@H](O)[C@H]1O [Example 6, 5-m-nitrophenyl-2-(1-normon-2-yl)oxazole A] | – | 0.05 µg/mL (≈ 0.102 µM) | > 128 µg/mL | 10 µg/mL (≈ 20.5 µM) | > 128 µg/mL | 4 µg/mL (≈ 8.19 µM) | > 80 µg/mL | 8 µg/mL (≈ 16.4 µM) | 1.25 µg/mL (≈ 2.56 µM) | > 80 µg/mL | > 128 µg/mL | 1.25 µg/mL (≈ 2.56 µM) | 0.625 µg/mL (≈ 1.28 µM) | 4 µg/mL (≈ 8.19 µM) | > 80 µg/mL | 1 µg/mL (≈ 2.05 µM) | 80 µg/mL (≈ 164 µM) | 0.025 µg/mL (≈ 0.0512 µM) | 0.1 µg/mL (≈ 0.205 µM) | > 128 µg/mL | MIC ([1]; NB12, 144 h): 0.05 µg/mL (≈ 0.102 µM); MIC [9]: 0.025 µg/mL (≈ 0.0512 µM); MIC [10, 37]: 16 µg/mL (≈ 32.8 µM); MIC [12]: 0.025 µg/mL (≈ 0.0512 µM); MIC [14]: 0.05 µg/mL (≈ 0.102 µM); MIC [15]: 0.05 µg/mL (≈ 0.102 µM); MIC [16, 38]: 16 µg/mL (≈ 32.8 µM); MIC [17]: 0.025 µg/mL (≈ 0.0512 µM); MIC [19]: 0.05 µg/mL (≈ 0.102 µM); MIC [20]: 0.05 µg/mL (≈ 0.102 µM); MIC [23]: 0.025 µg/mL (≈ 0.0512 µM); MIC [35]: 0.05 µg/mL (≈ 0.102 µM); MIC [31]: 0.05 µg/mL (≈ 0.102 µM); MIC [32]: 0.025 µg/mL (≈ 0.0512 µM)
